Results: US6566048B1, “Acetyl-COA-carboxylase from Candida albicans” (Syngenta Limited, priority 1997, dated 2003)
≈ marks a conversion by molar mass, not a printed value.

Experiments:
C. albicans B2630 = assay: In-vitro antifungal activity, broth-dilution liquid MIC; type: cell-based; settings: Candida albicans, 30° C., 48h, MIC determined visually, read-out: Liquid MIC (μg/ml) for Soraphen A
Protocol: (§1) Compounds were tested over a concentration range of 1024-0.00098 μg/ml by a broth-dilution method in microtitre plates using doubling dilutions in YPD or YPGal (both containing 500 μg/l d-biotin). Stock solutions of inhibitors were prepared at 51.2 mg/ml in Dimethyl sulphoxide (DMSO) (final assay concentration of DMSO was 2% v/v). Each Yeast culture was added to the well to give a final 10^4 cfu/well. The plates were incubated at 30° C. for 48h and MIC's determined visually.

[1] = tested on: S. cerevisiae PNS 117b 6A; assay: as above; type: cell-based; settings: Saccharomyces cerevisiae, PNS117B6A, 30° C., 48h, MIC determined visually, read-out: Liquid MIC (μg/ml) for Soraphen A
Protocol: as §1

[2] = tested on: S. cerevisiae PNS 117a 5C; assay: as above; type: cell-based; settings: Saccharomyces cerevisiae, PNS117A5C, 30° C., 48h, MIC determined visually, read-out: Liquid MIC (μg/ml) for Soraphen A
Protocol: as §1

[3] = tested on: S. cerevisiae PNS 120b 1C; assay: as above; type: cell-based; settings: Saccharomyces cerevisiae, PNS120B1C, 30° C., 48h, MIC determined visually, read-out: Liquid MIC (μg/ml) for Soraphen A
Protocol: as §1

[4] = tested on: S. cerevisiae PNS 120a 6C; assay: as above; type: cell-based; settings: Saccharomyces cerevisiae, PNS120A6C, 30° C., 48h, MIC determined visually, read-out: Liquid MIC (μg/ml) for Soraphen A
Protocol: as §1

S. cerevisiae CLS2-13 = assay: as above; type: cell-based; settings: Saccharomyces cerevisiae, CLS213, 30° C., 48h, MIC determined visually, read-out: Liquid MIC (μg/ml) for Soraphen A
Protocol: as §1

S. cerevisiae Mey 134 = assay: as above; type: cell-based; settings: Saccharomyces cerevisiae, MEY134, 30° C., 48h, MIC determined visually, read-out: Liquid MIC (μg/ml) for Soraphen A
Protocol: as §1

[5] = target: ACCase preparation from S. cerevisiae CLS2-13 (C. albicans ACC1 gene in Yep24) (Candida albicans, UniProt A0A1D8PRR7); assay: In-vitro ACCase assay ([14C] NaHCO3 incorporation); type: biochemical; settings: 37° C., 5 minutes, read-out: IC50 for Soraphen A (nM) against ACCase preparations
Protocol: (§2) Cultures of the appropriate yeast strains were grown to the exponential phase of growth (for Saccharomyces and Candida strains respectively). These were then harvested by centrifugation (4400 g, 10 min, 4° C.), washed twice in 700 ml of 50 mM Tris pH7.5 containing 20% w/v gylcerol, resuspending the cell pellet each time. […] The volume of buffer required was dependent on the total packed cell wet weight. (i.e. 1 ml buffer added per 6 gm of packed wet cell pellet).
(§3) The cell paste was homogenised using a pre-cooled Bead-Beater (Biospec Products, Bartlesville, Okla. 74005) with 4×10 second Bursts, allowing 20 second intervals on ice. The preparation was then centrifuged at 31,180 g for 30 minutes. After centrifugation the supernatant was immediately decanted into a container, then aliquoted before snap freezing in liquid nitrogen.

[6] = target: ACCase preparation from S. cerevisiae PNS 117a 5C (Candida albicans, UniProt A0A1D8PRR7); assay: In-vitro ACCase assay ([14C] NaHCO3 incorporation); type: biochemical; settings: 37° C., 5 minutes, read-out: IC50 for Soraphen A (nM) against ACCase preparations
Protocol: as §2, §3

[7] = target: ACCase preparation from S. cerevisiae PNS 117b 6A (Candida albicans, UniProt A0A1D8PRR7); assay: In-vitro ACCase assay ([14C] NaHCO3 incorporation); type: biochemical, C. albicans; settings: 37° C., 5 minutes, read-out: IC50 for Soraphen A (nM) against ACCase preparations
Protocol: as §2, §3

C. albicans ACC1 = settings: isolated fully functional C. albicans ACC1
Protocol: The assay was conducted in 96 well, flat bottomed polystyrene microtitre plates. All test and control samples were tested in duplicate in this assay.
100 μl of the ACCase enzyme preparation (in 50 mM Tris pH7.5 containing 1 mM EGTA, 1 mM EDTA (disodium salt), 1 mM DTT, 0.25 mM Pefabloc hydrochloride, 1 μM Leupeptin hemisulphate, 1 μM Pepstatin A, 0.5 μM Trypsin inhibitor, and 20% w/v glycerol) was added to each well of the microtitre plate. Each well contained either a 3 μl test sample made up in DMSO or 3 μl DMSO alone (NB. Final DMSO concentrations in the assay were 1.48% v/v). The microtitre plates were placed in a water bath maintained at 37° C. 10 μl of [^14C] NaHCO3 containing 9.25 kBq in 378 mM NaHCO3 was then added to each well. […]
After the addition of the stop reagent the plates were left open in the water bath for a further 30 minutes to allow the ^14CO2 to escape. […] Radioactivity in the samples was then determined by scintillation counting (Wallac WinSpectral 1414, Turku, Finland).
IC50's were calculated from the data using non-linear regression techniques available in the ORIGIN software package (Microcal Software Inc., Massachusetts, USA).

Sequence of ACCase preparation from S. cerevisiae CLS2-13 (C. albicans ACC1 gene in Yep24) (A0A1D8PRR7 entry or part of it): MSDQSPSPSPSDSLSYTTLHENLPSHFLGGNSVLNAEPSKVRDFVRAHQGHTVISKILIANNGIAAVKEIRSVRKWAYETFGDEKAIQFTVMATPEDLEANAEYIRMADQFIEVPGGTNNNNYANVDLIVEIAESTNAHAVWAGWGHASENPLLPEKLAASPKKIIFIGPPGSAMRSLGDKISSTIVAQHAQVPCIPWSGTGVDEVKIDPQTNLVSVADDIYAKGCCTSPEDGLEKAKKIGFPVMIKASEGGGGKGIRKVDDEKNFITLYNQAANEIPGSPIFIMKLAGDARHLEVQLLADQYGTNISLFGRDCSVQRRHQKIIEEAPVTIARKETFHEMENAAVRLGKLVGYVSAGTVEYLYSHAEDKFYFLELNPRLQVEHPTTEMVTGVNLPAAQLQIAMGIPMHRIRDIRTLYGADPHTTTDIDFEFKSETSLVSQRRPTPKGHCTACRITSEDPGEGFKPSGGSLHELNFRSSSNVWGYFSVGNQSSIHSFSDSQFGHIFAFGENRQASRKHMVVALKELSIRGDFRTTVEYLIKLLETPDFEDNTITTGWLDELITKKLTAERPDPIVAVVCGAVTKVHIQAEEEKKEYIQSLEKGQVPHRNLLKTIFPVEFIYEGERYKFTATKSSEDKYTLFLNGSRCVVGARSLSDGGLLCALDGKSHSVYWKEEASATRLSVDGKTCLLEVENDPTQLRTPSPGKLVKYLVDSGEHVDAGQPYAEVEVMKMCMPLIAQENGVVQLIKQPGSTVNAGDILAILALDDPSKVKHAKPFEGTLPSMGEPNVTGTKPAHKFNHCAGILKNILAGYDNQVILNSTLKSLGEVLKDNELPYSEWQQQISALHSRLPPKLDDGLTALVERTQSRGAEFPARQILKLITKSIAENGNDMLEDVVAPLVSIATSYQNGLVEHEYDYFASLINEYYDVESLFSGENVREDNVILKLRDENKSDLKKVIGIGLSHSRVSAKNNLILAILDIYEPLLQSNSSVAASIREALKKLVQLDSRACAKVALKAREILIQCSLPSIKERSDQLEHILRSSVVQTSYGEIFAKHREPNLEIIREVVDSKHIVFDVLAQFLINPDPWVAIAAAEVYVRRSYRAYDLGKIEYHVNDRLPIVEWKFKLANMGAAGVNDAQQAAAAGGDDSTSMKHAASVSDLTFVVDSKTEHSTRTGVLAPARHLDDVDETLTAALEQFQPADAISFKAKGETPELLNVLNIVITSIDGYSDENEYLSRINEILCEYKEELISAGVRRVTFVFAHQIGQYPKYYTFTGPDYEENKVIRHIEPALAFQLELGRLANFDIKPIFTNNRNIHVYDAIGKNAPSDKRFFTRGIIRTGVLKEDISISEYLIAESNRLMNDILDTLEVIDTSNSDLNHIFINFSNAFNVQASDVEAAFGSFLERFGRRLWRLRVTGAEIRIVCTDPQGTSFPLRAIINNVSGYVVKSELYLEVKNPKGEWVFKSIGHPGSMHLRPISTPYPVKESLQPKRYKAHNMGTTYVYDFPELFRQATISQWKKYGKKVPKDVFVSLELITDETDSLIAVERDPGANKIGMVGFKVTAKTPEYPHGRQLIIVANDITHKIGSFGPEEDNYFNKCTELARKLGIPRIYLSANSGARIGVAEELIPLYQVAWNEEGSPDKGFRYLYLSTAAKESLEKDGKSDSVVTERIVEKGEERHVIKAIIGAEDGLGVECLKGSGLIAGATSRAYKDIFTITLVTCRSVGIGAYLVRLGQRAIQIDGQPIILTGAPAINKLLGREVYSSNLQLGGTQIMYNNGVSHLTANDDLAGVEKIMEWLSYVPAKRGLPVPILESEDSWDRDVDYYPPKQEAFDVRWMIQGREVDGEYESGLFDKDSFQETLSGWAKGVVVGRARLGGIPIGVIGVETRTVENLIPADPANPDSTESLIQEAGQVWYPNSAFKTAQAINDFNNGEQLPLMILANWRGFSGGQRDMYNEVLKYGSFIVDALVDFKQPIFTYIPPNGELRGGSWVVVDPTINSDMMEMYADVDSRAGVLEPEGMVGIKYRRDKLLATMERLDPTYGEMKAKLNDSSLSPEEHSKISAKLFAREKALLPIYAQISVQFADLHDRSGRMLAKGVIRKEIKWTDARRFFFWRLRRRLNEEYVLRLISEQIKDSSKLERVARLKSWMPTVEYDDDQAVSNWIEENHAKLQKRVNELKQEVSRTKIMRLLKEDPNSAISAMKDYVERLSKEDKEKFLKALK
Sequence of ACCase preparation from S. cerevisiae PNS 117b 6A (A0A1D8PRR7 entry or part of it): as above

For `CO[C@H]1CCCC[C@@H](c2ccccc2)OC(=O)[C@@H](C)[C@@]2(O)O[C@H]([C@@H](C)[C@H](O)[C@H]2OC)[C@@H](C)/C=C/[C@H]1OC` [Soraphen A], the MIC (C. albicans B2630) was 0.003 µg/mL (≈ 0.00576 µM), the MIC [1] was 4 µg/mL (≈ 7.68 µM) and the MIC [2] was 2 µg/mL (≈ 3.84 µM). It also gave an MIC [3] of 0.125 µg/mL (≈ 0.24 µM), an MIC [4] of 0.5 µg/mL (≈ 0.96 µM) and an MIC (S. cerevisiae CLS2-13) of 2 µg/mL (≈ 3.84 µM). For the same compound, the MIC (S. cerevisiae Mey 134) was 8 µg/mL (≈ 15.4 µM), the IC50 [5] was 2.5 nM and the IC50 [6] was 17.5 nM. For the same compound, the IC50 [7] was 13.1 nM and the “inhibition by SoraphenA” value (C. albicans ACC1) was 100%.
